Legend:
[1] = molecular target: T1, A-DA lipid probe targets in A549 cells (Homo sapiens, UniProt P35354); test: In situ competitive SILAC profiling with A-DA probe in (PMA-stimulated) A549 cells; conditions: A549 cells, A-DA probe
T1 sequence (P35354 18-604): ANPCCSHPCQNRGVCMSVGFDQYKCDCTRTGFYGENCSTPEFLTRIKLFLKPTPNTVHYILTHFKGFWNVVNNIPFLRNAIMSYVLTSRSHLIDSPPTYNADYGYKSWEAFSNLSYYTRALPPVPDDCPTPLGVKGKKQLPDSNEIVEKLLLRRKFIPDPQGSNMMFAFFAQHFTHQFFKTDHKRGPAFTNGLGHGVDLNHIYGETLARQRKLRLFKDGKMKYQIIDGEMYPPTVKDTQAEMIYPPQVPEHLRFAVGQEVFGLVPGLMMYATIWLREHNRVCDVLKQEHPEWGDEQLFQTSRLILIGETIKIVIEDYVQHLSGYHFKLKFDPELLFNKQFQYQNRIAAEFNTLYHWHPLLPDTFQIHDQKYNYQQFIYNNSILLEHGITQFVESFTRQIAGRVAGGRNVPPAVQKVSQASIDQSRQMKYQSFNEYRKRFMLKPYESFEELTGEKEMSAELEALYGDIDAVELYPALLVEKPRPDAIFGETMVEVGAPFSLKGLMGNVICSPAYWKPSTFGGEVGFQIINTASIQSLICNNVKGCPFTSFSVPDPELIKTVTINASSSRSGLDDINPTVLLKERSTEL

lipids of Neuro2a cells = test: Untargeted metabolomics (lipidomic profiling) of Neuro2a cells; assay type: cell-based, mouse; conditions: 10 μM, 6 h
Procedure: Discovery metabolite profiling was performed as described by Saghatelian et al., “Assignment of endogenous substrates to enzymes by global metabolite profiling,” Biochemistry 43:14332-14339 (2004) with several modifications. […] The media from the cells was removed and cells were washed with DPBS (2×5.0 mL) before adding freshly prepared media solutions containing vehicle or compound. After incubating for 6 h at 37° C. and subsequent removal of the media, the cells were harvested by scrapping in cold DPBS (3 mL) and pelleted by centrifugation in glass vials. The pellets were washed once with cold DPBS (3 mL) and then cold […] (2:1) (3 mL) was added. After vortexing, the vials were centrifuged (3,000×g, 10 min, 4° C.) and the bottom (organic) layer was transferred to a new glass vial and concentrated under a stream of N2. Samples were stored at −80° C. until the day of analysis when they were reconstituted in Mobile Phase A (100 μL, see below).
Lipid extracts were analyzed by LC/MS in both positive and negative modes using an Agilent 6520 QTOF instrument and LC separation performed on a Kinetex reversed phase C18 column (50×4.6 mm, 2.6 μm particle size, 100Å). Mobile phase A was composed of 5:1:4 isopropanol:methanol:water and Mobile phase B was composed of 99:1 isopropanol:water. Both mobile phases also contained 0.1% AcOH and NH4OAc (5 mM) to facilitate ionization and LC separation. […] To minimize carryover, LC solvents were cycled between 100% Mobile Phase A and 100% Mobile Phase B over 5 min after each run. Data analysis was performed using XCMS (Smith et al., 2006) software which is freely available online (http://xcmsonline.scripps.edu).

recombinant TMEM97 = molecular target: T2, recombinant TMEM97 (Homo sapiens, UniProt Q5BJF2); test: In situ gel-based competition of arachidonoyl probe labeling of recombinant TMEM97 in HEK293T cells; assay type: cell-based; conditions: TMEM97-transfected HEK293T cells, probe 5 μM, competitor 25 μM
T2 construct: Full-length cDNAs encoding for the each protein of interest were subcloned into pcDNA3.1 myc-His A; expressed in transfected cells; host or cells: HEK293T
Procedure: Proteomes were diluted to 1.0 mg/mL (total protein concentration) and 50 μL of each proteome was transferred to separate wells in a 96-well plate.
Full-length cDNAs encoding for the each protein of interest were subcloned into pcDNA3.1 myc-His A (Invitrogen) or used directly for transfections if available in a eukaryotic expression vector. HEK293T cells were grown to ˜70% confluence under standard growth conditions before adding the appropriate cDNA [control cells (“mock”) received an equal amount of empty pcDNA3.1 myc-His A vector] and FuGENE 6 or X-tremeGENE HP (Roche) transfection reagent according to the manufacturer's instructions. Cells were incubated for 36-48 hours before labeling in situ or harvesting for in vitro experiments.

[2] = Neg, m/z 716.52, RT 32.28 min, versus DMSO
[3] = Neg, m/z 721.50, RT 30.94 min, versus DMSO
[4] = Neg, m/z 786.53, RT 31.97 min, versus DMSO
[5] = Neg, m/z 788.54, RT 34.16 min, versus DMSO
[6] = Neg, m/z 808.51, RT 30.14 min, versus DMSO
[7] = Pos, m/z 788.61, RT 35.81 min, versus DMSO

T2 sequence (Q5BJF2 whole entry, species assumed): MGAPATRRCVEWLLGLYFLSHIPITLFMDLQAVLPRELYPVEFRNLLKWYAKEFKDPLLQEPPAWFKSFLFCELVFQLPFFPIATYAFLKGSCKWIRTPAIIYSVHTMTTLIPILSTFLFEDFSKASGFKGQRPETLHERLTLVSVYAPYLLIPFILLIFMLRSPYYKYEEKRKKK

## O=C(/C=C/c1cccnc1)NCCCCC1CCN(C(=O)c2ccccc2)CC1 [FK-866, reference compound]
[1]; competitor 25 μM
  SILAC ratio, PTGS2 (P35354): 1.9

## CN1CCN(C(=O)c2[nH]c3ccc([N+](=O)[O-])cc3c2-c2ccccc2)CC1 [MJN228, (4-Methylpiperazin-1-yl)(5-nitro-3-phenyl-1H-indol-2-yl)methanone]
Lipids of Neuro2a cells; Neg, m/z 255.23, RT 14.24 min, versus DMSO
  Fold Change, FFA 16:0: 1.17 fold
Lipids of Neuro2a cells; Neg, m/z 281.25, RT 15.75 min, versus DMSO
  Fold Change, FFA 18:1: 1.23 fold
Lipids of Neuro2a cells; Neg, m/z 283.26, RT 20.89 min, versus DMSO
  Fold Change, FFA 18:0: 1.22 fold
Lipids of Neuro2a cells; Neg, m/z 303.23, RT 12.39 min, versus DMSO
  Fold Change, FFA 20:4: 1.17 fold
Lipids of Neuro2a cells; Neg, m/z 444.31, RT 9.31 min, versus DMSO
  Fold Change, NAT 24:1: 2.51 fold
Lipids of Neuro2a cells; Neg, m/z 446.33, RT 13.76 min, versus DMSO
  Fold Change, NAT 24:0: 2.29 fold
Lipids of Neuro2a cells; Neg, m/z 452.28, RT 5.02 min, versus DMSO
  Fold Change, LPE 16:0: 1.25 fold
Lipids of Neuro2a cells; Neg, m/z 474.36, RT […], versus DMSO
  Fold Change, NAT 26:0: 2.75 fold
Lipids of Neuro2a cells; Neg, m/z 478.29, RT 5.66 min, versus DMSO
  Fold Change, LPE 18:1: 1.50 fold
Lipids of Neuro2a cells; Neg, m/z 480.31, RT 7.96 min, versus DMSO
  Fold Change, LPE 18:0: 1.43 fold
Lipids of Neuro2a cells; Neg, m/z 596.39, RT […], versus DMSO
  Fold Change, feature m/z 596.39: 2.02 fold
Lipids of Neuro2a cells; Neg, m/z 622.41, RT 12.66 min, versus DMSO
  Fold Change, feature m/z 622.41: 2.06 fold
Lipids of Neuro2a cells; Neg, m/z 673.48, RT 33.41 min, versus DMSO
  Fold Change, PA 34:1: 1.01 fold
Lipids of Neuro2a cells; [2]
  Change (direction), PE 34:1: DOWN
  Fold Change, PE 34:1: 1.35 fold
Lipids of Neuro2a cells; [3]
  Change (direction), PG 32:0: DOWN
  Fold Change, PG 32:0: 1.26 fold
Lipids of Neuro2a cells; Neg, m/z 738.51, RT 33.92 min, versus DMSO
  Fold Change, PE 36:4: 1.46 fold
Lipids of Neuro2a cells; Neg, m/z 747.52, RT 32.95 min, versus DMSO
  Fold Change, PG 34:1: 1.22 fold
Lipids of Neuro2a cells; Neg, m/z 749.53, RT 34.04 min, versus DMSO
  Fold Change, PG 34:0: 1.24 fold
Lipids of Neuro2a cells; Neg, m/z 760.51, RT 31.80 min, versus DMSO
  Fold Change, PS 34:1: 1.07 fold
Lipids of Neuro2a cells; Neg, m/z 764.52, RT 35.18 min, versus DMSO
  Fold Change, PE 38:5: 1.02 fold
Lipids of Neuro2a cells; Neg, m/z 766.54, RT 36.76 min, versus DMSO
  Fold Change, PE 38:4: 1.01 fold
Lipids of Neuro2a cells; Neg, m/z 775.55, RT 34.70 min, versus DMSO
  Fold Change, PG 36:1: 1.02 fold
Lipids of Neuro2a cells; [4]
  Change (direction), PS 36:2: DOWN
  Fold Change, PS 36:2: 1.11 fold
Lipids of Neuro2a cells; [5]
  Change (direction), PS 36:1: DOWN
  Fold Change, PS 36:1: 1.03 fold
Lipids of Neuro2a cells; [6]
  Change (direction), PS 38:5: DOWN
  Fold Change, PS 38:5: 1.05 fold
Lipids of Neuro2a cells; Neuro2a cells, P<0.0001
  elevation of metabolites (NAEs and NATs) versus DMSO: ≥ 2 fold
Lipids of Neuro2a cells; Pos, m/z 326.30, RT 8.36 min, versus DMSO
  Fold Change, NAE 18:1: 2.91 fold
Lipids of Neuro2a cells; Pos, m/z 328.32, RT 12.20 min, versus DMSO
  Fold Change, NAE 18:0: 2.00 fold
Lipids of Neuro2a cells; Pos, m/z 331.28, RT 8.51 min, versus DMSO
  Fold Change, MAG 16:0: 1.67 fold
Lipids of Neuro2a cells; Pos, m/z 358.30, RT 9.68 min, versus DMSO
  Fold Change, MAG 18:1: 1.37 fold
Lipids of Neuro2a cells; Pos, m/z 371.10, RT 13.51 min, versus DMSO
  Fold Change, feature m/z 371.10: 2.00 fold
Lipids of Neuro2a cells; Pos, m/z 522.35, RT 5.29 min, versus DMSO
  Fold Change, LPC 18:1: 1.24 fold
Lipids of Neuro2a cells; Pos, m/z 524.37, RT 7.49 min, versus DMSO
  Fold Change, LPC 18:0: 1.48 fold
Lipids of Neuro2a cells; Pos, m/z 544.34, RT 5.29 min, versus DMSO
  Fold Change, LPC 20:4: 1.69 fold
Lipids of Neuro2a cells; Pos, m/z 669.22, RT 13.52 min, versus DMSO
  Fold Change, feature m/z 669.22: 2.15 fold
Lipids of Neuro2a cells; Pos, m/z 704.21, RT 19.42 min, versus DMSO
  Fold Change, feature m/z 704.21: 2.45 fold
Lipids of Neuro2a cells; Pos, m/z 705.21, RT 19.44 min, versus DMSO
  Fold Change, feature m/z 705.21: 2.63 fold
Lipids of Neuro2a cells; Pos, m/z 743.24, RT 19.42 min, versus DMSO
  Fold Change, feature m/z 743.24: 2.56 fold
Lipids of Neuro2a cells; Pos, m/z 744.24, RT 19.44 min, versus DMSO
  Fold Change, feature m/z 744.24: 2.88 fold
Lipids of Neuro2a cells; Pos, m/z 745.24, RT 19.44 min, versus DMSO
  Fold Change, feature m/z 745.24: 2.81 fold
Lipids of Neuro2a cells; Pos, m/z 762.60, RT 36.86 min, versus DMSO
  Fold Change, PC 34:0: 1.00 fold
Lipids of Neuro2a cells; Pos, m/z 776.23, RT 25.46 min, versus DMSO
  Fold Change, feature m/z 776.23: 2.50 fold
Lipids of Neuro2a cells; Pos, m/z 777.23, RT 25.48 min, versus DMSO
  Fold Change, feature m/z 777.23: 2.52 fold
Lipids of Neuro2a cells; Pos, m/z 778.23, RT 25.47 min, versus DMSO
  Fold Change, feature m/z 778.23: 2.41 fold
Lipids of Neuro2a cells; Pos, m/z 779.23, RT 25.47 min, versus DMSO
  Fold Change, feature m/z 779.23: 2.59 fold
Lipids of Neuro2a cells; [7]
  Change (direction), PC 36:1: DOWN
  Fold Change, PC 36:1: 1.04 fold
Lipids of Neuro2a cells; Pos, m/z 817.26, RT 25.47 min, versus DMSO
  Fold Change, feature m/z 817.26: 2.35 fold
Lipids of Neuro2a cells; Pos, m/z 818.26, RT 25.47 min, versus DMSO
  Fold Change, feature m/z 818.26: 2.51 fold
Lipids of Neuro2a cells; Pos, m/z 819.26, RT 25.46 min, versus DMSO
  Fold Change, feature m/z 819.26: 2.85 fold
Lipids of Neuro2a cells; Pos, m/z 820.26, RT 25.47 min, versus DMSO
  Fold Change, feature m/z 820.26: 2.79 fold
Lipids of Neuro2a cells; Pos, m/z 850.25, RT 30.92 min, versus DMSO
  Fold Change, feature m/z 850.25: 2.42 fold
Lipids of Neuro2a cells; Pos, m/z 851.25, RT 30.92 min, versus DMSO
  Fold Change, feature m/z 851.25: 2.41 fold
Lipids of Neuro2a cells; Pos, m/z 852.25, RT 30.92 min, versus DMSO
  Fold Change, feature m/z 852.25: 2.46 fold
Lipids of Neuro2a cells; Pos, m/z 853.25, RT 30.92 min, versus DMSO
  Fold Change, feature m/z 853.25: 2.61 fold
Lipids of Neuro2a cells; Pos, m/z 924.27, RT 33.83 min, versus DMSO
  Fold Change, feature m/z 924.27: 2.14 fold
Lipids of Neuro2a cells; Pos, m/z 925.27, RT 33.83 min, versus DMSO
  Fold Change, feature m/z 925.27: 2.19 fold
Lipids of Neuro2a cells; Pos, m/z 926.27, RT 33.84 min, versus DMSO
  Fold Change, feature m/z 926.27: 2.27 fold
Lipids of Neuro2a cells; Pos, m/z 927.27, RT 33.83 min, versus DMSO
  Fold Change, feature m/z 927.27: 2.19 fold

## C=CCN(C)CCCCCCOc1ccc(C(=O)c2ccc(Br)cc2)c(F)c1 [Ro488071]
[1]; competitor 5 μM
  SILAC ratio, PTGS2 (P35354): 2.5
[1]; competitor 50 μM
  SILAC ratio, PTGS2 (P35354): 3.3

## C=CCN(C)CCCCCCOc1ccc(C(=O)c2ccc(Br)cc2)c(F)c1 [Ro 48-8071, reference compound]
Recombinant TMEM97
  competition of arachidonoyl probe labeling of recombinant TMEM97: competition was observed

— patent US10168342B2, “Lipid probes and uses thereof” (THE SCRIPPS RESEARCH INSTITUTE, priority 2015, dated 2019)
